Source: paper PMC11242993, “Evaluation of the Therapeutic Potential of Sulfonyl Urea Derivatives as Soluble Epoxide Hydrolase (sEH) Inhibitors” (Molecules, 2024)

Tests used:
C57BL/6J male mice = assay: Hot plate model; type: in vivo; conditions: 10 mg/kg i.p.
Experimental: Thermal nociception in the hot plate test was assessed with a commercially available apparatus (Hotplate Analgesia Meter, Columbus Instruments) consisting of a metal plate to a constant temperature of 55.0 ± 0.1 °C. Mice were put into the hot plate testing instrument to adapt for at least 15 min. The device was connected to a manually operated timer that recorded the amount of time the mouse spent on the heated surface before showing signs of nociception (e.g., licked its paws or jumped), the cut-off time was 60 s. The baseline (basic pain threshold, the response was more than 25 s, and the jumping mice were excluded.) was calculated as the mean of three readings recorded before testing at intervals of 15 min. The time course of latency was then determined at 15, 30, 45, 60, 90, and 120 min after compound treatment. Data were analyzed as time-course curves of the percentage of maximum effect MPE% = (post drug latency − baseline latency) × 100/(cut-off time − baseline latency). C57BL/6J male mice obtained from The Jackson Laboratory (Bar Harbor, ME, USA) weighing 28 g were used for the hot plate test. Animal procedures were conducted following the rules and regulations of the Institutional Animal Care and Use Committee of the National Institute on Alcohol Abuse and Alcoholism (NIAAA) under the protocols of LPS-GK1.

[1] = In vivo pharmacokinetic experiment; design: species or system C57BL/6J mice; conditions: mice, 10 mg/kg; for Cmax (in words): oral
Experimental: Twenty 8–9-week-old male C57BL/6J mice were taken for the in vivo pharmacokinetic experiment. They were divided into four groups, each containing five mice. Each group was used for either oral or intraperitoneal administration of compound 4f or 15a. Both the compounds were reconstituted in 5% DMSO, 5% TWEEN 80 in saline water (pH = 7.4). The mice were orally and intraperitoneally administered compounds at 10 mg/kg dose. Blood samples were collected at 0, 0.5, 1, 2, 4, 6, and 24 h after administration of the compound, and serum was isolated with the compound. For the pharmacokinetic study, 10 μL of serum samples from mice were extracted with a 2:1 mixture of LC/MS-grade chloroform and methanol, followed by intermittent vortexing, and then centrifuged at 4000 rpm for 10 min at 4 °C. Thereafter, the supernatant was collected and analyzed by LC−MS/MS to measure the concentrations of compounds 4f and 15a in the serum.

Caco-2 cells = assay: Caco-2 permeability; type: in vitro ADME
Experimental: Caco-2 cells were cultured in 75 cm^2 flasks to 80–90% confluence according to the ATCC and Millipore recommendations in a humidified atmosphere at 37 °C and 5% CO2. Cells were detached with a trypsin/EDTA solution, resuspended in the complete medium containing DMEM high glucose ([…]) with L-glutamine (4 mM) supplemented with 10% heat-inactivated Fetal Bovine Serum, 1% non-essential amino acids, and 730 nM puromycin, and seeded at a density of 5 × 10^5 cells in a 75 cm^2 flask. After 5 days, cells were trypsinized and resuspended in the complete medium to a final concentration of 600 × 10^3 cells/mL. Of the cell suspension, 400 µL was added to each well of an HTS 24-Multiwell Insert System and 25 mL of prewarmed complete medium was added to the feeder tray. Caco-2 cells were incubated in the Multiwell Insert System for 6–10 days before the transport experiments. The medium in the filter plate and feeder tray was refreshed every other day. Prior to the transport experiment, the integrity of the monolayer was verified by measuring the transepithelial electrical resistance (TEER) for every well using a Millicell-ERS system ohm meter. The final TEER values were within the range of 150–600 Ω × cm^2, as required for the assay conditions. The 24-well insert plate was removed from its feeder plate and placed in a new sterile 24-well transport analysis plate. The inserts were washed with PBS after medium aspiration. Ketoprofen, atenolol, digoxin, and quinidine were used as reference compounds.
To determine transport rates in the basolateral (B)-to-apical (A) direction, 1000 μL of the test compound solutions was added into the wells of the transport analysis plate, and the wells in the filter plate were filled with 300 μL of buffer (apical compartment).
The effect of the inhibitor on the Pgp-mediated transport of the tested compounds was assessed by determining the bidirectional transport in the presence or absence of verapamil. The Caco-2 cells were preincubated for 30 min at 37 °C with 100 μM of verapamil in both apical and basolateral compartments. After removal of the preincubation medium, the test compounds with verapamil (100 μM) in transport buffer were added in donor wells, while the receiver wells were filled with the appropriate volume of transport buffer with 100 μM of verapamil. The final amounts of test and reference compounds were 10 μM each. The plates were incubated for 90 min at 37 °C under continuous shaking at 100 rpm. Aliquots of 75 μL were taken from the donor and receiver compartments for LC–MS/MS analysis. All samples were mixed with 2 volumes of acetonitrile followed by protein sedimentation by centrifuging at 10,000 rpm for 10 min. Supernatants were analyzed using the HPLC system coupled with a tandem mass spectrometer.

Microsomal stability = type: in vitro ADME; conditions: pH 7.4, human liver microsomes; for remaining at 1 h, 2 μM: read-out: Human Metabolic Stability % Remaining after 1 h; for half-life at 2 μM: read-out: Human Metabolic Stability Half Life
Experimental: Human microsomal incubations were carried out in 96-well plates in 5 aliquots of 30 μL each (one for each time point). Human liver microsomal incubation medium comprised of phosphate buffer (100 mM, pH 7.4), MgCl2 (3.3 mM), NADPH (3 mM), glucose-6-phosphate (5.3 mM), glucose-6-phosphate dehydrogenase (0.67 units/mL) with 0.42 mg of liver microsomal protein per ml. In the control reactions, the NADPH-cofactor system was substituted with phosphate buffer. Test compounds (2 μM, final solvent concentration 1.6%) were incubated with microsomes at 37 °C and shaken at 100 rpm. Each reaction was performed in duplicates. Five time points over 40 min were analyzed. The reactions were stopped by adding 5 volumes of methanol containing the internal standard to the incubation aliquots, followed by protein sedimentation by centrifuging at 5500 rpm for 4 min. Supernatants were analyzed using the HPLC system coupled with a tandem mass spectrometer.

Compound	analgesic effect in hot plate assay (C57BL/6J male mice)	half-life ([1]; male, C57BL/6J, mouse, serum, other: oral and intraperitoneal, oral and intraperitoneal administration, read-out: plasma half-life) [h]	Cmax (in words) [1]	Pgp substrate status from Caco-2 efflux ratio (Caco-2 cells)	brain penetrability judged from Caco-2 permeability (Caco-2 cells)	remaining at 1 h, 2 μM (Microsomal stability) [%]	half-life at 2 μM (Microsomal stability) [h]
O=C(NC12CC3CC(CC(C3)C1)C2)NS(=O)(=O)c1ccc(OC(F)(F)F)cc1 [Compound 4f]	none of the sEH inhibitors, including AUDA, showed any analgesic effect	< 2	better than that of 15a	not Pgp substrates	brain penetrable	80	1.77
O=C(NC12CC3CC(CC(C3)C1)C2)NS(=O)(=O)c1ccc2ccccc2c1 [Compound 4l]	none of the sEH inhibitors, including AUDA, showed any analgesic effect		promising Cmax value		brain penetrable	45	0.557
